Test results published in the CheMixHub drug solubility set.

Assay: xn = mol fraction of the nth substance listed, in the solute-free solvent

CC1(C)SC2C(NC(=O)C(NC(=O)N3CCNC3=O)c3ccccc3)C(=O)N2C1C(=O)O (stereo not given) + CO + CC(C)O
solubility (g/100 g solution)
Conditions | 278.15 K | 283.15 K | 288.15 K | 293.15 K | 298.15 K | 303.15 K | 308.15 K | 313.15 K | 318.15 K | 323.15 K
x2 = 0.1 | 0.0982 | 0.114 | 0.133 | 0.163 | 0.195 | 0.225 | 0.276 | 0.333 | 0.411 | 0.503
x2 = 0.199 | 0.115 | 0.133 | 0.155 | 0.196 | 0.228 | 0.289 | 0.344 | 0.425 | 0.516 | 0.639
x2 = 0.3 | 0.139 | 0.156 | 0.188 | 0.229 | 0.277 | 0.331 | 0.4 | 0.501 | 0.611 | 0.735
x2 = 0.4 | 0.156 | 0.173 | 0.202 | 0.247 | 0.299 | 0.361 | 0.455 | 0.551 | 0.673 | 0.832
x2 = 0.497 | 0.165 | 0.186 | 0.227 | 0.266 | 0.323 | 0.394 | 0.504 | 0.618 | 0.749 | 0.926
x2 = 0.6 | 0.186 | 0.22 | 0.255 | 0.298 | 0.374 | 0.448 | 0.55 | 0.678 | 0.811 | 0.994
x2 = 0.7 | 0.215 | 0.243 | 0.295 | 0.353 | 0.42 | 0.494 | 0.625 | 0.742 | 0.889 | 1.13
x2 = 0.8 | 0.251 | 0.297 | 0.35 | 0.43 | 0.49 | 0.584 | 0.732 | 0.868 | 1.09 | 1.34
x2 = 0.9 | 0.297 | 0.368 | 0.427 | 0.507 | 0.602 | 0.722 | 0.92 | 1.14 | 1.37 | 1.68
